Source: US20230257367A1, “NOVEL THYROID HORMONE BETA RECEPTOR AGONIST” (Chengdu Kanghong Pharmaceutical Co., Ltd., priority 2020, published 2023)

How the values were obtained:
[1] = target: T1, TRα-LBD/RXRα (Homo sapiens, UniProt P10827); test: In vitro binding experiment (TR-FRET SRC2-2 co-activator peptide recruitment), TRα; assay type: biochemical; conditions: 4 h incubation at room temperature
T1 construct: TRα-LBD (Invitrogen, PV4762), or TRβ-LBD (Invitrogen, PV4764) with a GST tag were used; purchased Invitrogen (TRα-LBD); Pharmaron (RXRα) PV4762
T1 sequence (P10827 1-410 isoform P10827-2, other chains not shown): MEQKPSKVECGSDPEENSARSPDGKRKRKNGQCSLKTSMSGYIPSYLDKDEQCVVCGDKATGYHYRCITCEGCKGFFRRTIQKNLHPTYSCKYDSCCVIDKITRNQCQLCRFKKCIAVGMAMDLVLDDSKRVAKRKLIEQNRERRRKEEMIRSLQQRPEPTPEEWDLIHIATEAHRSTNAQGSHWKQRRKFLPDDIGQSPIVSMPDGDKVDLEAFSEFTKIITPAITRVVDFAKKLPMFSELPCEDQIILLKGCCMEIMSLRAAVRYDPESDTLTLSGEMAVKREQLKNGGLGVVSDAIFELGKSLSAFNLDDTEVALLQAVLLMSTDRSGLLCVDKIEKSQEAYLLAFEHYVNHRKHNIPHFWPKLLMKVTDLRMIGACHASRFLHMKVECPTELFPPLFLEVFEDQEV
T1 sequence (P19793 whole entry partner, other chains not shown, the tested form may be a part): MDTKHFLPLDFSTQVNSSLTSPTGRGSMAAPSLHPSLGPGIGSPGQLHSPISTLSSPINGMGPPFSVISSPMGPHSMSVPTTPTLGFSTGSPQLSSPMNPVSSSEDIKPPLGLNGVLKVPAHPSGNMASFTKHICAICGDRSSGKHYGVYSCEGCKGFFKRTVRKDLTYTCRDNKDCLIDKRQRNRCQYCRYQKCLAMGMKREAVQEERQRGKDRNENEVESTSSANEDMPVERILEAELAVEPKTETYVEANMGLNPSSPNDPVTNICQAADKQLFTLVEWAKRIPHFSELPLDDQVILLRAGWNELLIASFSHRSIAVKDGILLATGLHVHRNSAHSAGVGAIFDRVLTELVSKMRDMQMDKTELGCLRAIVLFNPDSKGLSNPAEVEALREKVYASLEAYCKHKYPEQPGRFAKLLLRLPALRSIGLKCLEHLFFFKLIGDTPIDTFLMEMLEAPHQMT

[2] = target: T2, TRβ-LBD/RXRα (Homo sapiens, UniProt P10828); test: In vitro binding experiment (TR-FRET SRC2-2 co-activator peptide recruitment), TRβ; assay type: biochemical; conditions: 4 h incubation at room temperature
T2 construct: TRβ-LBD (Invitrogen, PV4764) with a GST tag were used; purchased Invitrogen (TRβ-LBD); Pharmaron (RXRα) PV4764
T2 sequence (P19793 whole entry partner, other chains not shown, the tested form may be a part): as above

[3] = tested on: NASH model; test: In vivo pharmacological experiment: DIO + CCl4 induced NASH model; set-up: species or system C57BL/6J male mice; conditions: oral, once per day
Protocol: In the early stages of this experiment, mice induced by DIO (diet-induced obesity) were fed with a high-fat diet, followed by intraperitoneal injection of CCl4 during high-fat diet feeding to induce the NASH model. In this model, the anti-NASH efficacy of the compound to be tested was evaluated Animal information: C57BL/6J male mice (18 weeks old) were used, comprising 32 DIO mice+8 normal mice, wherein the weight of DIO mice >38 g. [table] [table] Induction with CCl4: A 25% (volume ratio) of CCl4 solution was prepared by placing 1 part CCl4 and 3 parts olive oil in a glass bottle. The solution was mixed well and used right after it was ready Eight mice in the first group were intraperitoneally injected with normal saline solution as normal controls The mice in the 2rd to 5th groups were intraperitoneally injected with 25% CCl4 solution twice a week. 25% (volume ratio) CCl4 was administered by body weight, 0.5 ml/kg. The interval between the injection time of CCl4 and the time of administration on the day should be more than 4 hours Histopathological Analysis All liver samples were dehydrated by a dehydrating instrument (Leica HistoCore Pearl-0348) and then embedded by a paraffin embedding machine (HistoCoreArcadia). The embedded liver sample was then sliced using a Lecia RM2235 machine. NAS Score NAS scores were performed on HE (hematoxylin-eosin) stained slices as the sum of steatosis, balloon degeneration, and lobular inflammation. [table] […] Percentage of Fibrosis All slices stained with Sirius red were scanned by a Leica Aperio AT2 Brightfield scanner, and then a percentage of Sirius red positive staining area was calculated by the HALO AI system to evaluate the percentage area of the Sirius red in the total liver area scanned.

[4] = tested on: primary hepatocyte; test: Hepatotoxicity detection in vitro (CellTiter-Glo); assay type: cell-based, human; conditions: primary hepatocytes
Protocol: Information of Primary Hepatocyte
Step 1: a test substance was prepared into a 200 mM DMSO stock solution, and then subjected to 3-times gradient continuous dilution by 7 concentrations, then 1.5 μL of each of the solutions of the 8 concentrations was added into 498.5 μL of incubation culture medium (with a composition referring to Table 5, directly mixed evenly) to prepare a working solution, and the incubation culture medium was preheated at 37° C. before preparation. DMSO was used as a solvent control. DMSO contents in the working solution and the solvent control were both 0.3 vol %. Concentrations of compounds were as follows:
Step 2: Plate Inoculation and Cell Culture
Second Step: Plate Inoculation and Culture of Cells
1) A tube of hepatocytes of the donor used in the experiment preserved at ultra-low temperature was taken, and the hepatocytes were ensured to be still frozen at low temperature before resuscitation. The hepatocytes were quickly placed in a water bath at 37° C. and gently shaken until all ice crystals were dispersed, and were transferred to a biosafety cabinet after spraying 70 vol % ethanol.
2) Contents of hepatocyte tubules were poured into a 50 mL centrifuge tube containing 50 mL of resuscitation culture medium (with a composition referring to Table 3, directly mixed evenly), and centrifuged at 80 g for 8 minutes. After centrifugation, the resuscitation culture medium was sucked out and an inoculation culture medium was added (with a composition referring to Table 4, directly mixed evenly). The cells were counted by AO/PI staining to obtain a cell suspension with a cell density of 0.2×10^6 cells per milliliter.
3) The cell suspension above was inoculated into a 96-well plate coated with collagen I, with 100 μL per well. The culture plate was placed in a 5% CO2 incubator with 95% relative humidity to culture for 4 hours to 6 hours.
4) After incubation for 4 hours to 6 hours, the state of the cells was observed under microscope. The culture plate was shaken gently, the inoculation culture medium was sucked out, and 100 μL of incubation culture medium was added into each well (with a composition referring to Table 5). A toxicity test could be carried out after culturing in the incubator for 18 hours to 20 hours.
5) Before administration, the morphology of the cells was observed under microscope. The culture medium in the culture plate was sucked out, and 100 μL of solvent control (DMSO), or test substance working solution was added into each well. Three parallel samples were tested under each condition.
6) The newly prepared working solution or solvent control was used for solution exchange every 24 hours after dosing.
After the working solution acted for 48 hours, the morphology of the cells was observed under microscope for later use.
Step 3: Cytotoxicity Detection
1) A CellTiter-Glo (Promega, article number G9243) reagent stored at −20° C. was melted in a water bath at 37° C.
2) After the cell culture plate obtained above was incubated for 48 hours, 50 μL of CellTiter-Glo solution was directly added into each experimental well.
3) The cell culture plate was vortexed at 400 rpm for 10 minutes, and incubated at room temperature to stabilize a luminescence signal.
After 10 minutes 100 μL of reaction solution was sucked from each well and transferred to a new white nontransparent-bottom flat plate (Corning 96-well plate Cat No. 3917). The
chemiluminescence value of each well was read by a microplate reader (a luminescence value of the white nontransparent-bottom flat plate was recorded as “a luminescence valueblank”; and a luminescence value of the solvent control was recorded as “a luminescence valuesolvent”).
Cell viability(%)=[(luminescence valueto-be-tested compound−luminescence valueblank)/(luminescence valuesolvent−luminescence valueblank)]×100% […]

[5] = target: T3, TRβ (Homo sapiens, UniProt P10828); test: In vitro TRβ cell transfection experiment (GAL4 luciferase reporter, HEK293T); assay type: cell-based
T3 construct: host or cells: HEK293T
T3 sequence (P10828 217-461 limits assumed): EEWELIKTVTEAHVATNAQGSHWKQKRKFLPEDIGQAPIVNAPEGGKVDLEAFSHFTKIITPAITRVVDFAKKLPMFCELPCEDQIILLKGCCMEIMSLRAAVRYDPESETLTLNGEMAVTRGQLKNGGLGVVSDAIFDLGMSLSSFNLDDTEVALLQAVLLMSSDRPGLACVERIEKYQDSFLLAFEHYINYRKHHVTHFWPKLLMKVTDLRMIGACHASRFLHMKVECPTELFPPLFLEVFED
T3 sequence (P19793 227-458 partner limits assumed): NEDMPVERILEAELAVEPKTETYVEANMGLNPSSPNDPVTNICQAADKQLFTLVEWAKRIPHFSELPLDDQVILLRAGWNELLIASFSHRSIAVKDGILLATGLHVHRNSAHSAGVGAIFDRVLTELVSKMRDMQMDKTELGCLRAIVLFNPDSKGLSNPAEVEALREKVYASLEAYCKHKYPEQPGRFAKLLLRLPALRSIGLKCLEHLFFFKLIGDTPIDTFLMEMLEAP

Structure (SMILES): CC(C)c1nc(Oc2c(Cl)cc(-n3ncc(=O)[nH]c3=O)cc2Cl)ncc1O [KH06]
- EC50 [1]: 0.094 µM
- EC50 [2]: 0.007 µM
- NAS score (sum of steatosis, ballooning degeneration and lobular inflammation) ([3]; 1 and 3 mg/kg, compared with the model group, FIG. 2): significant reduction in score
- fibrosis evaluation (percentage of Sirius red positive area) ([3]; 1 and 3 mg/kg, day 0 to day 27, FIG. 1): reducing the proportion of fibrosis
- fibrosis efficacy compared with MGL3196 at 3 mg/kg ([3]; KH06 1 mg/kg, FIG. 1): better than that of MGL3196 at a dosage of 3 mg/kg
- NAS score efficacy compared with MGL3196 at 3 mg/kg ([3]; KH06 1 mg/kg, FIG. 2): same efficacy as MGL3196 at 3 mg/kg
- IC50 ([4]; Homo sapiens, Hepatocyte, cell viability after 48 hours): 207 µM
- Cell activity at the highest concentration (%) ([4]; 48 hours, highest working solution concentration 600 μM): 4.50%
- EC50 [5]: 0.009 µM
